{"source": "PubChem BioAssay AID1259407", "about": "(Chemical Carcinogenesis Research Information System (CCRIS), 2018)", "tested_on": "CCRIS mutagenicity, Ames/micronucleus/aberration tests", "assay": "CCRIS mutagenicity studies", "note": "Active and inactive are the calls of the source. How the calls were made is not given here.", "data": [{"compound": "CC1=CC(=O)c2ccccc2C1=O", "values": [{"measurement": "mutagenic call", "setting": "Test System: AMES SALMONELLA TYPHIMURIUM, Strain/Indicator: TA97, Metabolic Activation: NONE, Method: PREINCUBATION", "result": "active; positive"}, {"measurement": "mutagenic call", "setting": "Test System: AMES SALMONELLA TYPHIMURIUM, Strain/Indicator: TA97, Metabolic Activation: RAT, LIVER, S-9, PHENOBARBITAL AND 5,6-BENZOFLAVONE, Method: PREINCUBATION", "result": "inactive; negative"}, {"measurement": "mutagenic call", "setting": "Test System: AMES SALMONELLA TYPHIMURIUM, Strain/Indicator: TA97A, Metabolic Activation: NONE, Method: PREINCUBATION", "result": "inactive; negative"}, {"measurement": "mutagenic call", "setting": "Test System: AMES SALMONELLA TYPHIMURIUM, Strain/Indicator: TA98, Metabolic Activation: NONE, Method: PREINCUBATION", "result": "inactive; negative"}, {"measurement": "mutagenic call", "setting": "Test System: AMES SALMONELLA TYPHIMURIUM, Strain/Indicator: TA98, Metabolic Activation: NONE, Method: SPIRAL ASSAY", "result": "inactive; negative"}, {"measurement": "mutagenic call", "setting": "Test System: AMES SALMONELLA TYPHIMURIUM, Strain/Indicator: TA98, Metabolic Activation: NONE, Method: STANDARD PLATE", "result": "inactive; negative"}, {"measurement": "mutagenic call", "setting": "Test System: AMES SALMONELLA TYPHIMURIUM, Strain/Indicator: TA98, Metabolic Activation: RAT, LIVER, S-9, AROCLOR 1254, Method: SPIRAL ASSAY", "result": "inactive; negative"}, {"measurement": "mutagenic call", "setting": "Test System: AMES SALMONELLA TYPHIMURIUM, Strain/Indicator: TA98, Metabolic Activation: RAT, LIVER, S-9, AROCLOR 1254, Method: STANDARD PLATE", "result": "inactive; negative"}, {"measurement": "mutagenic call", "setting": "Test System: AMES SALMONELLA TYPHIMURIUM, Strain/Indicator: TA98, Metabolic Activation: RAT, LIVER, S-9, PHENOBARBITAL AND 5,6-BENZOFLAVONE, Method: PREINCUBATION", "result": "active; positive"}, {"measurement": "mutagenic call", "setting": "Test System: AMES SALMONELLA TYPHIMURIUM, Strain/Indicator: TA100, Metabolic Activation: NONE, Method: SPIRAL ASSAY", "result": "inactive; negative"}, {"measurement": "mutagenic call", "setting": "Test System: AMES SALMONELLA TYPHIMURIUM, Strain/Indicator: TA100, Metabolic Activation: NONE, Method: STANDARD PLATE", "result": "inactive; negative"}, {"measurement": "mutagenic call", "setting": "Test System: AMES SALMONELLA TYPHIMURIUM, Strain/Indicator: TA100, Metabolic Activation: RAT, LIVER, S-9, AROCLOR 1254, Method: SPIRAL ASSAY", "result": "inactive; negative"}, {"measurement": "mutagenic call", "setting": "Test System: AMES SALMONELLA TYPHIMURIUM, Strain/Indicator: TA100, Metabolic Activation: RAT, LIVER, S-9, AROCLOR 1254, Method: STANDARD PLATE", "result": "inactive; negative"}, {"measurement": "mutagenic call", "setting": "Test System: AMES SALMONELLA TYPHIMURIUM, Strain/Indicator: TA100, Metabolic Activation: RAT, LIVER, S-9, PHENOBARBITAL AND 5,6-BENZOFLAVONE, Method: PREINCUBATION", "result": "inactive; negative"}, {"measurement": "mutagenic call", "setting": "Test System: AMES SALMONELLA TYPHIMURIUM, Strain/Indicator: TA102, Metabolic Activation: NONE, Method: PREINCUBATION", "result": "inactive; negative"}, {"measurement": "mutagenic call", "setting": "Test System: AMES SALMONELLA TYPHIMURIUM, Strain/Indicator: TA102, Metabolic Activation: NONE, Method: STANDARD PLATE", "result": "inactive; negative"}, {"measurement": "mutagenic call", "setting": "Test System: AMES SALMONELLA TYPHIMURIUM, Strain/Indicator: TA102, Metabolic Activation: RAT, LIVER, S-9, PHENOBARBITAL AND 5,6-BENZOFLAVONE, Method: PREINCUBATION", "result": "inactive; negative"}, {"measurement": "mutagenic call", "setting": "Test System: AMES SALMONELLA TYPHIMURIUM, Strain/Indicator: TA104, Metabolic Activation: RAT, LIVER, S-9, PHENOBARBITAL AND 5,6-BENZOFLAVONE, Method: PREINCUBATION", "result": "inactive; negative"}, {"measurement": "mutagenic call", "setting": "Test System: AMES SALMONELLA TYPHIMURIUM, Strain/Indicator: TA1535, Metabolic Activation: NONE, Method: PREINCUBATION", "result": "inactive; negative"}, {"measurement": "mutagenic call", "setting": "Test System: AMES SALMONELLA TYPHIMURIUM, Strain/Indicator: TA1535, Metabolic Activation: NONE, Method: SPIRAL ASSAY", "result": "inactive; negative"}, {"measurement": "mutagenic call", "setting": "Test System: AMES SALMONELLA TYPHIMURIUM, Strain/Indicator: TA1535, Metabolic Activation: NONE, Method: STANDARD PLATE", "result": "inactive; negative"}, {"measurement": "mutagenic call", "setting": "Test System: AMES SALMONELLA TYPHIMURIUM, Strain/Indicator: TA1535, Metabolic Activation: RAT, LIVER, S-9, AROCLOR 1254, Method: SPIRAL ASSAY", "result": "inactive; negative"}, {"measurement": "mutagenic call", "setting": "Test System: AMES SALMONELLA TYPHIMURIUM, Strain/Indicator: TA1535, Metabolic Activation: RAT, LIVER, S-9, AROCLOR 1254, Method: STANDARD PLATE", "result": "inactive; negative"}, {"measurement": "mutagenic call", "setting": "Test System: AMES SALMONELLA TYPHIMURIUM, Strain/Indicator: TA1535, Metabolic Activation: RAT, LIVER, S-9, PHENOBARBITAL AND 5,6-BENZOFLAVONE, Method: PREINCUBATION", "result": "inactive; negative"}, {"measurement": "mutagenic call", "setting": "Test System: AMES SALMONELLA TYPHIMURIUM, Strain/Indicator: TA1537, Metabolic Activation: NONE, Method: PREINCUBATION", "result": "inactive; negative"}, {"measurement": "mutagenic call", "setting": "Test System: AMES SALMONELLA TYPHIMURIUM, Strain/Indicator: TA1537, Metabolic Activation: NONE, Method: SPIRAL ASSAY", "result": "inactive; negative"}, {"measurement": "mutagenic call", "setting": "Test System: AMES SALMONELLA TYPHIMURIUM, Strain/Indicator: TA1537, Metabolic Activation: NONE, Method: STANDARD PLATE", "result": "inactive; negative"}, {"measurement": "mutagenic call", "setting": "Test System: AMES SALMONELLA TYPHIMURIUM, Strain/Indicator: TA1537, Metabolic Activation: RAT, LIVER, S-9, AROCLOR 1254, Method: SPIRAL ASSAY", "result": "inactive; negative"}, {"measurement": "mutagenic call", "setting": "Test System: AMES SALMONELLA TYPHIMURIUM, Strain/Indicator: TA1537, Metabolic Activation: RAT, LIVER, S-9, AROCLOR 1254, Method: STANDARD PLATE", "result": "inactive; negative"}, {"measurement": "mutagenic call", "setting": "Test System: AMES SALMONELLA TYPHIMURIUM, Strain/Indicator: TA1537, Metabolic Activation: RAT, LIVER, S-9, PHENOBARBITAL AND 5,6-BENZOFLAVONE, Method: PREINCUBATION", "result": "inactive; negative"}, {"measurement": "mutagenic call", "setting": "Test System: AMES SALMONELLA TYPHIMURIUM, Strain/Indicator: TA1538, Metabolic Activation: NONE, Method: PREINCUBATION", "result": "inactive; negative"}, {"measurement": "mutagenic call", "setting": "Test System: AMES SALMONELLA TYPHIMURIUM, Strain/Indicator: TA1538, Metabolic Activation: RAT, LIVER, S-9, PHENOBARBITAL AND 5,6-BENZOFLAVONE, Method: PREINCUBATION", "result": "inactive; negative"}, {"measurement": "mutagenic call", "setting": "Test System: AMES SALMONELLA TYPHIMURIUM, Strain/Indicator: TA2637, Metabolic Activation: NONE, Method: PREINCUBATION", "result": "active; positive"}, {"measurement": "mutagenic call", "setting": "Test System: AMES SALMONELLA TYPHIMURIUM, Strain/Indicator: TA2637, Metabolic Activation: RAT, LIVER, S-9, PHENOBARBITAL AND 5,6-BENZOFLAVONE, Method: PREINCUBATION", "result": "active; positive"}, {"measurement": "mutagenic call", "setting": "Test System: AMES SALMONELLA TYPHIMURIUM, Strain/Indicator: TA2638, Metabolic Activation: NONE, Method: STANDARD PLATE", "result": "inactive; negative"}, {"measurement": "mutagenic call", "setting": "Test System: E. COLI, Strain/Indicator: IC202, Metabolic Activation: NONE, Method: STANDARD PLATE", "result": "active; positive"}, {"measurement": "mutagenic call", "setting": "Test System: E. COLI, Strain/Indicator: IC203, Metabolic Activation: NONE, Method: STANDARD PLATE", "result": "active; positive"}, {"measurement": "mutagenic call", "setting": "Test System: E. COLI, Strain/Indicator: IC5059, Metabolic Activation: NONE, Method: STANDARD PLATE", "result": "inactive; negative"}, {"measurement": "mutagenic call", "setting": "Test System: E. COLI, Strain/Indicator: IC5064, Metabolic Activation: NONE, Method: STANDARD PLATE", "result": "inactive; negative"}, {"measurement": "mutagenic call", "setting": "Test System: E. COLI, Strain/Indicator: IC5184, Metabolic Activation: NONE, Method: STANDARD PLATE", "result": "inactive; negative"}, {"measurement": "mutagenic call", "setting": "Test System: E. COLI, Strain/Indicator: IC5185, Metabolic Activation: NONE, Method: STANDARD PLATE", "result": "inactive; negative"}, {"measurement": "mutagenic call", "setting": "Test System: E. COLI, Strain/Indicator: WP2 (PKM101), Metabolic Activation: NONE, Method: STANDARD PLATE", "result": "inactive; negative"}, {"measurement": "mutagenic call", "setting": "Test System: E. COLI, Strain/Indicator: WP2 UVRA (PKM101), Metabolic Activation: NONE, Method: STANDARD PLATE", "result": "inactive; negative"}]}]}
